Measurements taken from patent publication US20240325544A1, “CATIONIC LIPID FOR COVALENT MODIFICATION OF PEPTIDES” (PharmalN Corporation, priority 2023, published 2024).
Bridge positions count the residues as written; N and C are the ends. Square brackets hold non-standard residues; d marks the D form. Peptide text beside a SMILES is read from it. * marks the point of attachment. Palmitoyl = CCCCCCCCCCCCCCCC(=O)*; Dab = NCC[C@H](N)C(=O)O; Dap = NC[C@H](N)C(=O)O; AEEA = NCCOCCOCC(=O)O

Tests used:
[1] = mouse, in vivo, sc, 1 mg/kg
Protocol: FIGS. 1A-1B: PK/PD Profiles for single subcutaneous (SC) injection of native CNP (SEQ ID NO: 32), SEQ ID NO: 31, and SEQ ID NO: 29 at 1.0 mg/kg (0.45, 0.33, and 0.33 μmol/kg, respectively) in mice. Error bars represent standard error of the mean. FIG. 1A) Plasma CNP [mean (SEM); n=5] in CD-1 mice after subcutaneous administration of 1.0 mg/kg of native CNP (SEQ ID NO: 32), SEQ ID NO: 31, and SEQ ID NO: 29 (0.45, 0.33, and 0.33 μmol/kg, respectively) in buffer. […] Plasma CNP in CD-1 mice was measured by CNP ELISA kit from Phoenix Pharmaceuticals (EKE-012-03, Burlingame, CA).
The animals were kept in PharmaIN animal facility with controlled temperature (68-74° F.) and humidity (30-60%), and a 12-hour light/dark cycle. […] Lead buffer was used to formulate or dissolve all test articles on the day of administration. […] Biochemical analysis: For pharmacokinetic study, plasma aliquots were thawed at 4° C. then analyzed using a commercially available CNP ELISA kit from Phoenix Pharmaceuticals (cat #EKE-012-03), which detects the cyclic structure of CNP and all CNP derivatives with the same level of reactivity to the ELISA kit. […] For pharmacodynamic or bioactivity study of cGMP, plasma aliquots were thawed at 4° C. then analyzed using a commercially available cGMP kit from Abcam (ab133052, Waltham, MA).

[2] = test system: E0771 breast cancer cells; experiment: Orthotopic mouse model of breast cancer using E0771 cells (FIG. 6); type: in vivo, mice; conditions: 0.3 mg/kg (0.1 μmol/kg) SC once daily, 5 days on, 2 days off, 3 cycles
Protocol: Error bars represent standard error of the mean. FIG. 6A) Tumor growth kinetics of 6-week-old female C57BL/6J mice (n=10 per group) that were inoculated with E0771 breast cancer cells (250,000 cells/mouse) in the mammary gland. Starting from Day 4 post-inoculation, cationic alkyl modified CNP derivatives (SEQ ID NO: 29, 30, and 31) were administered subcutaneously at a bolus dose of 0.3 mg/kg (0.1 μmol/kg) once daily for 5 days (5 days on, 2 days off) for 3 cycles; dose days indicated by gridlines. The control group, which received only buffer, was dosed in the same manner to establish the baseline tumor growth kinetics. […] Therefore, it can be concluded that the attachment of CNP is important for the observed anti-tumor activity. Statistical analysis was based on Dunnett's test performed by using GraphPad (n=10, 10, 10, and 10; Control, SEQ ID NO: 29, SEQ ID NO: 30, and SEQ ID NO: 31) **** P<0.0001 vs Control group.
Therefore, it can be concluded that the attachment of CNP is essential for anti-tumor activity. […] Animal care and treatment: Female C57BL/6J mice (6 weeks-old) were purchased from Kyudo (Saga, Japan) and maintained under a 12-hour light/12-hour dark cycle with free access to water and standard mouse diet (MF diet, Oriental Yeast Co., Ltd. Tokyo, Japan or PicoLab Rodent Diet 20, LabDiet Corp., St. Louis, Missouri). Implantation and drug administration: Mice were implanted with E0771 breast cancer cells (250,000 cells/mouse; Cosmo Bio Tokyo, Japan) in their left mammary gland and were randomized into groups of n=10. Starting from Day 4 post-inoculation, cationic alkyl modified CNP derivatives (SEQ ID NOs: 29, 30, and 31) were administered subcutaneously at a bolus dose of 0.3 mg/kg (0.1 μmol/kg; with a dose volume of 10 mL/kg) in sterile water for injection (Otsuka Pharmaceutical, Tokushima, Japan) once daily for 5 days (5 days on, 2 days off) for 3 cycles. The control group, which received only buffer, was dosed in the same manner to establish the baseline tumor growth kinetics. Tumor sizes were measured using calipers. Statistical analysis was based on Dunnett's test performed by using GraphPad (n=10, 10, 10, and 10; Control, SEQ ID NO: 29, SEQ ID NO: 30, and SEQ ID NO: 31) **** P<0.0001 vs Control group.

C57BL/6J mice = experiment: Bleomycin mouse model of idiopathic pulmonary fibrosis, alveolar area (FIG. 8); type: in vivo; conditions: Day 21
Protocol: FIGS. 8A-8B. […] Additionally, a normal control group (NC; n=3) without Bleo, and a Bleo Control group (n=7) without test article treatment were also included in this study. On Day 21 post Bleo administration, the mice were sacrificed under isoflurane anesthesia, and their lung tissues were harvested. FIG. 8B) A part of the lung tissue was fixed in 4% PFA, and Azan staining was performed, and alveolar areas (inversely proportional to the degree of fibrosis) were measured by Image J in a blinded setting. Error bars indicate standard error of the mean. Statistical analysis was performed by Student t-test on GraphPad Prism (n=3, 7, 7, 7, and 7); NC, Bleo Control, SEQ ID NO: 31, Pir, and Combo (SEQ ID NO: 31 & pirfenidone) *** P<0.001, ns=not significant vs NC.
Animal care and treatment: Male C57BL/6J mice (6 weeks-old) were purchased from Kyudo (Saga, Japan) and maintained under a 12-hour light/12-hour dark cycle with free access to water and standard mouse diet (MF diet, Oriental Yeast Co., Ltd. Tokyo, Japan). To induce lung fibrosis, mice received IT administration of bleomycin (Bleo; 1.0 mg/kg; Nippon Kayaku Tokyo, Japan). […] Alveolar area, which is inversely proportional to fibrotic area, were measured by Image J in a blinded setting (NIH, Bethesda, MD, USA).

| SMILES | Increase of baseline plasma CNP levels [1] | Tumor volume compared to the Control group [2] | Alveolar area (inversely proportional to fibrosis) (C57BL/6J mice; alone, 0.3 mg/kg SC once a day on weekdays from day 7) | Alveolar area (inversely proportional to fibrosis) (C57BL/6J mice; in combination with pirfenidone 100 mg/kg orally) |
| --- | --- | --- | --- | --- |
| CCCCCCCCCCCCCCCC(=O)NCCOCCOCC(=O)NCCOCCOCC(=O)NCCOCCOCC(=O)N[C@@H](CCN)C(=O)N[C@@H](CCN)C(=O)NCC(=O)N[C@@H](CC(C)C)C(=O)N[C@@H](CO)C(=O)N[C@@H](CCCCN)C(=O)NCC(=O)N[C@H]1CSSC[C@@H](C(=O)O)NC(=O)CNC(=O)[C@H](CC(C)C)NC(=O)CNC(=O)[C@H](CO)NC(=O)[C@H](CCC(N)=O)NC(=O)[C@H](CO)NC(=O)CNC(=O)[C@H]([C@@H](C)CC)NC(=O)[C@H](CCCNC(=N)N)NC(=O)[C@H](CC(=O)O)NC(=O)[C@H](CC(C)C)NC(=O)[C@H](CCCCN)NC(=O)[C@H](CC(C)C)NC(=O)CNC(=O)[C@H](Cc2ccccc2)NC1=O [SEQ ID NO: 29] ({Palmitoyl-AEEA-AEEA-AEEA}-[Dab][Dab]GLSKGCFGLKLDRIGSQSGLGC-OH; disulfide 8-24; C-terminus assumed) | > 10 fold | significant decrease in tumor volume | – | – |
| CCCCCCCCCCCCCCCC(=O)NCCOCCOCC(=O)NCCOCCOCC(=O)NCCOCCOCC(=O)N[C@@H](CN)C(=O)N[C@@H](CN)C(=O)NCC(=O)N[C@@H](CC(C)C)C(=O)N[C@@H](CO)C(=O)N[C@@H](CCCCN)C(=O)NCC(=O)N[C@H]1CSSC[C@@H](C(=O)O)NC(=O)CNC(=O)[C@H](CC(C)C)NC(=O)CNC(=O)[C@H](CO)NC(=O)[C@H](CCC(N)=O)NC(=O)[C@H](CO)NC(=O)CNC(=O)[C@H]([C@@H](C)CC)NC(=O)[C@H](CCCNC(=N)N)NC(=O)[C@H](CC(=O)O)NC(=O)[C@H](CC(C)C)NC(=O)[C@H](CCCCN)NC(=O)[C@H](CC(C)C)NC(=O)CNC(=O)[C@H](Cc2ccccc2)NC1=O [SEQ ID NO: 31] ({Palmitoyl-AEEA-AEEA-AEEA}-[Dap][Dap]GLSKGCFGLKLDRIGSQSGLGC-OH; disulfide 8-24; C-terminus assumed) | over 5 fold | significant decrease in tumor volume | significantly higher alveolar area | significantly higher alveolar area |
